In patent US20170370929A1, “POSITIVE ALLOSTERIC MODULATORS OF THE DELTA-OPIOID RECEPTOR” (BRISTOL-MYERS SQUIBB COMPANY, priority 2014, published 2017):

How the values were obtained:
[1] = molecular target: μ receptor (Homo sapiens, UniProt P35372); experiment: PathHunter β-arrestin recruitment assay in CHO-OPRM1 cells; format: cell-based; conditions: PAM mode, up to the highest concentration tested (10 μM)
[2] = molecular target: δ receptor (Homo sapiens, UniProt P41143); experiment: PathHunter β-arrestin recruitment assay in CHO-OPRD1 cells; format: cell-based
Chain of δ receptor (P41143 whole entry): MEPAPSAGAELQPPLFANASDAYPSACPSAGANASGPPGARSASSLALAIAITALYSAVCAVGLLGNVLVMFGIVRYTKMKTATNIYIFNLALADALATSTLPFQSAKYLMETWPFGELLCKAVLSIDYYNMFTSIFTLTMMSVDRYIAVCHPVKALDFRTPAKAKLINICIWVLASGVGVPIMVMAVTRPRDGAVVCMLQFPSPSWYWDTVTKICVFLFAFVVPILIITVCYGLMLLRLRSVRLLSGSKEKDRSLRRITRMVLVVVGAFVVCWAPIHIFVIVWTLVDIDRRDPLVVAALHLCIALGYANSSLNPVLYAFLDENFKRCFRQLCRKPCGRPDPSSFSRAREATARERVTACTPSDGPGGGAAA

Chain of μ receptor (P35372 whole entry): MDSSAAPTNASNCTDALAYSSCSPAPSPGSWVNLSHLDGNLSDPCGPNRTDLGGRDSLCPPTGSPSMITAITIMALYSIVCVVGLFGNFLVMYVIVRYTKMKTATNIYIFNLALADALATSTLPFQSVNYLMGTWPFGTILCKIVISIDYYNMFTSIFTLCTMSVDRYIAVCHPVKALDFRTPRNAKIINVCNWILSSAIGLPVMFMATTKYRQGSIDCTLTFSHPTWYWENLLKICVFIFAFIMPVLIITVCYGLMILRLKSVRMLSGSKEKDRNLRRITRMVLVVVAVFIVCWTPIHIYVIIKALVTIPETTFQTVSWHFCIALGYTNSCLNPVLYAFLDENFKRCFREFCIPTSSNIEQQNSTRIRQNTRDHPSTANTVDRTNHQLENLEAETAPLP

PAM activity at the μ receptor [1]	PAM activity at the δ receptor (in words) ([2]; PAM mode, β-arrestin recruitment)	EC50 ([2]; PAM mode, in the presence of an EC20 of leu-enkephalin, CHO-OPRD1 cells)	selectivity compared with PAM activity at the μ receptor ([2]; β-arrestin recruitment assay, δ versus μ receptor PAM activity)	Structure (SMILES)
no observable PAM activity	equipotent PAM activity to 2			CC1(C)CC(=O)C2=C(C1)OC1=C(C(=O)CC(C)(C)C1)C2c1ccc(OCc2ccccc2Br)cc1 [Analog 10, 9-(4-((2-bromobenzyl)oxy)phenyl)-3,3,6,6-tetramethyl-3,4,5,6,7,9-hexahydro-1H-xanthene-1,8(2H)-dione]
		200 nM	30 fold	CC1(C)CC(=O)C2=C(C1)OC1=C(C(=O)CC(C)(C)C1)C2c1ccc(OCc2ccccc2)cc1 [Analog 1]
